In article PMC5011342, “A high throughput drug screening assay to identify compounds that promote oligodendrocyte differentiation using acutely dissociated and purified oligodendrocyte precursor cells” (BMC Research Notes, 2016):
Where two headings read alike, the source gives them in different places.

What was measured:
[1] = tested on: acutely dissociated and purified rat OPCs; test: Acute OL differentiation assay (MBP expression/cell, immunofluorescent image quantification); assay type: cell-based; settings: Rattus norvegicus, sheet "All OLga data"
Summary of the method: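 This acute differentiation assay used purified rat OPCs from postnatal day 6–7 pups, seeded into PDL/laminin-coated 96-well plates in differentiation medium lacking PDGF and FGF. Compounds were applied in quadruplicate after a 1–2 h preincubation at 37 °C, 10 % CO2, with 0.1 % DMSO negative and 40 ng/ml T3 positive controls in eight wells. After fixation on DIV4, anti-MBP immunofluorescence images yielded MBP expression/cell.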

[2] = tested on: expanded OPCs; test: cells; settings: for viability at 0.1 µM / viability at 1 µM / viability at 10 µM: Rattus norvegicus, 72 h; for 0.1 µM (% DMSO) / 1 µM (% DMSO) / 10 µM (% DMSO): alamarBlue viability of expanded OPCs, relative to DMSO control; for 0.1 µM (% DMSO): compound at 0.1 µM; for 1 µM (% DMSO): compound at 1 µM; for 10 µM (% DMSO): compound at 10 µM
Summary of the method: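 Toxicity screen: compounds added at 0.1, 1 and 10 µM to PDGF-AA-expanded OPCs in 96-well plates, 3-day incubation at 37 °C, 10% CO2, then alamarBlue 1:10 for 4 h with fluorescence readout. Results set screening doses of 10/2, 2/0.4 or 0.4/0.08 µM.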

[3] = 2 uM test compound, relative to quetiapine, read-out: OL differentiation, 2 uM (% Quet)
[4] = 10 uM test compound, relative to quetiapine, read-out: OL differentiation, 10 uM (% Quet)
[5] = read-out: 0.1 µM (% DMSO), alamarBlue viability of expanded OPCs, compound at 0.1 µM, sheet All Tox data
[6] = read-out: 1 µM (% DMSO), alamarBlue viability of expanded OPCs, compound at 1 µM, sheet All Tox data
[7] = read-out: 10 µM (% DMSO), alamarBlue viability of expanded OPCs, compound at 10 µM, sheet All Tox data
[8] = test compound at 2 uM, MBP expression relative to quetiapine, NCC library screen, read-out: 2 uM (% Quet)
[9] = test compound at 2 uM, NCC library screen, relative to quetiapine, read-out: 2 uM (% Quet)
[10] = test compound at 10 uM, MBP expression relative to quetiapine, NCC library screen, read-out: 10 uM (% Quet)
[11] = test compound at 10 uM, NCC library screen, relative to quetiapine, read-out: 10 uM (% Quet)
[12] = read-out: 0.1 µM (% DMSO), alamarBlue viability, NCC library compound at 0.1 µM, sheet "All Tox data"
[13] = read-out: 1 µM (% DMSO), alamarBlue viability, NCC library compound at 1 µM, sheet "All Tox data"
[14] = read-out: 10 µM (% DMSO), alamarBlue viability, NCC library compound at 10 µM, sheet "All Tox data"
[15] = 0.4 uM test compound, relative to quetiapine, read-out: OL differentiation, 0.4 uM (% Quet)

SMILES | activation at 2 µM [1, 3] | activation at 10 µM [1, 4] | viability at 0.1 µM [2, 5] | viability at 1 µM [2, 6] | viability at 10 µM [2, 7] | 0.1 µM (% DMSO) [2] | 1 µM (% DMSO) [2] | 10 µM (% DMSO) [2] | further results
CCN1CCC[C@H]1CNC(=O)c1c(O)c(Cl)cc(Cl)c1OC [Raclopride] | 12.4% | 43.4% | 93.2% | 92.8% | 89.9% |  |  |  | 
C[N+]1(C)CCC(OC(=O)C(O)(c2ccccc2)C2CCCC2)C1 (stereo not drawn) [Glycopyrrolate] |  |  |  |  |  | 100.4 % DMSO | 104.4 % DMSO | 113.1 % DMSO | activation at 2 µM [1, 8]: 26.7%; activation at 2 µM [1, 9]: 7.1%; activation at 10 µM [1, 10]: 27.6%; activation at 10 µM [1, 11]: 19.5%; viability at 0.1 µM [2, 12]: 96.7%; viability at 1 µM [2, 13]: 91.4%; viability at 10 µM [2, 14]: 115%
[H]/N=C(/NC)NCCC[C@H](N)C(=O)O [L-NMMA] | 3% | 7.7% | 84.1% | 92.4% | 93% |  |  |  | 
NS(=O)(=O)c1cc(C2(O)NC(=O)c3ccccc32)ccc1Cl (stereo not drawn) [Chlorthalidone] |  |  |  |  |  | 92.5 % DMSO | 95.8 % DMSO | 81.7 % DMSO | activation at 2 µM [1, 8]: -5.8%; activation at 10 µM [1, 10]: -2%
COc1cc(N)c(Cl)cc1C(=O)NC1CCN(CCCOc2ccc(F)cc2)CC1OC (stereo not drawn) [Cisapride] | 11.3% | 25.5% | 80.4% | 89% | 73.6% |  |  |  | 
N=C(N)NC(=O)c1nc(Cl)c(N)nc1N [Amiloride] | -5.9% | -0.4% | 82.2% | 83.7% | 90.8% |  |  |  | 
CC(=O)CC(c1ccccc1)c1c(O)c2ccccc2oc1=O (stereo not drawn) [Warfarin] |  |  |  |  |  | 92.9 % DMSO | 93.8 % DMSO | 96.2 % DMSO | activation at 2 µM [1, 9]: -4.3%; activation at 10 µM [1, 11]: -2%
CC[C@@]1(O)C(=O)OCc2c1cc1n(c2=O)Cc2cc3c(CN(C)C)c(O)ccc3nc2-1 [Topotecan] |  |  | 72% | 49.7% | 12.3% |  |  |  | activation at 0.08 µM ([1]; 0.08 uM test compound, relative to quetiapine, read-out: OL differentiation, 0.08 uM (% Quet)): -46.4%; activation at 0.4 µM [1, 15]: -124%
COc1ccc(C(=O)NCc2ccc(OCCN(C)C)cc2)cc1OC [Itopride] | -2.3% | 2% |  |  |  |  |  |  | viability at 0.1 µM [2, 12]: 112%; viability at 1 µM [2, 13]: 97.5%; viability at 10 µM [2, 14]: 87.1%
CNC1=Nc2ccc(Cl)cc2C(c2ccccc2)=[N+]([O-])C1 [Chlordiazepoxide] |  |  |  |  |  |  |  |  | activation at 2 µM [1, 9]: -0.9%; activation at 10 µM [1, 11]: 23.8%; viability at 0.1 µM [2, 12]: 91.2%; viability at 1 µM [2, 13]: 93.8%; viability at 10 µM [2, 14]: 90.6%
CN(C)CCCN1c2ccccc2CCc2ccc(Cl)cc21 [Clomipramine] |  |  |  |  |  | 76.2 % DMSO | 37.7 % DMSO | 8.7 % DMSO | activation at 0.08 µM ([1]; test compound at 0.08 uM, MBP expression relative to quetiapine, NCC library screen, read-out: 0.08 uM (% Quet)): 18.5%; activation at 0.4 µM ([1]; test compound at 0.4 uM, MBP expression relative to quetiapine, NCC library screen, read-out: 0.4 uM (% Quet)): -59.9%
NS(=O)(=O)c1cc2c(cc1Cl)N=CNS2(=O)=O [Chlorothiazide] |  |  |  |  |  | 88.9 % DMSO | 90.2 % DMSO | 89.0 % DMSO | activation at 2 µM [1, 9]: -11.1%; activation at 10 µM [1, 11]: -11.8%
CC(C(=O)O)c1ccc(CC2CCCC2=O)cc1 (stereo not drawn) [loxoprofen] | 3.1% | 10.9% |  |  |  |  |  |  | viability at 0.1 µM [2, 12]: 99.8%; viability at 1 µM [2, 13]: 92.5%; viability at 10 µM [2, 14]: 87.6%
Oc1ccc2c3c1O[C@H]1c4[nH]c5ccccc5c4C[C@@]4(O)[C@@H](C2)N(CC2CC2)CC[C@]314 [Naltrindole] | -35.8% |  | 80.6% | 66.7% | 17.9% |  |  |  | activation at 0.4 µM [1, 15]: -9.9%
